The values below come from patent US12486229B2, “Indole derivative and application thereof” (SHANGHAI MEDICILON INC., priority 2020, dated 2025).

Data set [1] deals with T1, S1P1 (Homo sapiens, UniProt P21453).
T1 construct: host or cells: U2OS (human osteosarcoma) cell line, U2OS-EDG1
Put plainly: S1P1 overexpression cell activity by β-arrestin assay (U2OS-EDG1). Format: cell-based. The settings on record: U2OS-EDG1 cells. As for the experimental part: The following experiments were conducted to detect the activity of the compound on S1P1 overexpression cells by β-arrestin assay. [table] [table] 3. Experimental Steps Day 1: Cell Seeding Plate and Compound Treatment • (1) Firstly, the compound was diluted by a 4-fold gradient into 10 concentration points from the concentration of 10 μM in the culture plate by using NL fluid transfer system, with 2 replicates at each concentration point. • (2) Cells were resuspended by using FreeStyle™ expression medium, and the cell density was adjusted to 7,500 cells per 40 μL suspension. The samples with test concentration were added into the well of the cell culture plate, and 40 μL cell suspension was added into the corresponding well. • (3) The above cell plates were incubated overnight in a CO2 incubator with 5% (volume fraction) at 37° C. Day 2: Detection and Data Analysis • (1) The buffer solution was prepared according to the preparation method in the instructions of LiveBLAser™-fluorescence resonance energy transfer B/G loading kit. • (2) 8 μL detection reagent was added to each well, which were shaken and mixed evenly for 1 minute, centrifugated at 1,000 rpm for 10 seconds, and incubated at 23° C. in dark for 2 hours. • 3) Detection was performed by multimode reader. • 4) The PrismDemo software was used to analyze the data and fit the curve. 4. Experimental Results

The subject of data set [2] is TNBS induced ulcerative colitis in rats. Put plainly: TNBS induced ulcerative colitis in rats. Conditions: for Colon length / Colon weight / Colon weight/colon length / Ulcer area: day 8; for General anatomical view of colon, from excellent to poor: 7 days administration, SASP 360, Example 3 and Etrasimod 3, Ozanimod 10 mg/kg; for Drug efficacy intensity (colon weight): oral gavage for 7 consecutive days, doses as given in ranking. The format is in vivo, rat. How it is done: Preparation of molding agent: 5 mL TNBS and 8.953 mL anhydrous ethanol and 26.741 sterilized water for injection. • TNBS comes from Dalian Meilun Biotechnology Co., Ltd. • Source of SPF male SD rats: Shanghai Slake Experimental Animal Co., Ltd. • Animal age at the beginning of the experiment: 8 to 10 weeks; • Animal weight at the beginning of the experiment: about 250 g; • Adaptation time: 5 to 7 days; • Animals were fasted (only water) for 24 hours. After inhalation anesthesia with isoflurane, all rats were perfused with 0.5 mL TNBS ethanol solution per rat (18 mg TNBS/rat) via rectum with latex hose, with the length of the hose entering the rectum of about 8 cm. After withdrawing the hose, the rats remained under isoflurane anesthesia, and kept in the inclined state of hip elevation for 15 minutes.
The rats after modeling were randomly divided into 5 groups: model group, positive control group using drug sulfasalazine (SASP, 360 mg/kg), test substance group using the compound of Example 3 (3 mg/kg), test substance group using Etrasimod (3 mg/kg), test substance group using Ozanimod (10 mg/kg).
At 3 hours after modeling, the animals in each group were administrated with medicine solution by oral gavage (Table 1), 5 mL/kg body weight (10 mL/kg in sulfasalazine group), once a day, for 7 consecutive days, and the feces of the animals and whether there is death were observed every day. On the 8th day, the animals were killed under CO2 overdose anesthesia followed by being dissected, the entire colon tissue was extracted, the contents of the colon were cleaned after longitudinal dissection along the mesenteric side, the colon was weighed and measured for its length, the area of the ulcer was measured, and the general situation was observed and photos were taken. Finally, the colon was fixed in 10% formalin, and H&E staining and histopathological analysis (inflammation, goblet cells, lesion depth, ulcer degree, crypt abscess) were performed.
Wherein, the compound of Example 3 of the invention, purity: 99.74%. • Etrasimod, prepared according to the literature method (the second isomer of Example 1.29 in WO2010/011316A1), purity: 98.47%. • Ozanimod, prepared according to the literature method (compound 86 in WO2011/060392A1), purity: 99.78%. • Sulfasalazine enteric-coated tablets, produced by Shanghai Fuda Pharmaceutical Co., Ltd., 0.25 g/tablet. Enteric coated tablets show yellow to brownish yellow after the coating is removed. • Solutol: Beijing Fengli Jingqiu Pharmaceutical Co., Ltd. • Solvent preparation: • DMSO, Solutol and 0.9% sodium chloride solution were mixed according to the volume ratio of 5:10:85 to prepare the solvent.
Preparation of compound of Example 3 and Etrasimod solution: 27 mg of test substances were taken respectively and dissolved in 45 mL of solvent to obtain corresponding test substance solution.
Ozanimod: 90 mg Ozanimod was dissolved in 45 mL solvent to obtain Ozanimod solution.
Preparation of SASP solution: six sulfasalazine enteric-coated tablets after grinding were added to 41.7 mL 0.5% CMC-Na, and then dissolved by ultrasonic to obtain SASP solution.
Due to the excipient factor of SASP drug preparation, the concentration should not be too high when suspended in 0.5% CMC-Na, otherwise the suspension was uneven and the mobility was poor, so the dose volume of SASP was doubled compared with the compound of Example 3 and Etrasimod.

Data set [3] relates to DSS induced ulcerative colitis in mice. As to the kind of experiment: DSS induced ulcerative colitis in mice. Format: in vivo. On the set-up: key to Total stool scores: sum of shape (1-3) and bleeding (1-3) levels; normal = 1 each. Conditions: for Weight / Total stool scores: 20 mg/kg oral gavage once a day. How it is done:
Molecular weight of DSS dextran sodium sulfate: 36,000 to 50,000, From MP Biomedical Company.
Preparation of molding agent: preparation of 3.5% DSS: 49 g DSS plus 1,400 mL high-temperature sterilized water.
Source of SPF male C57BL/6 mice: Beijing Weitong Lihua Experimental Animal Technology Co., Ltd. • Animal age at the beginning of the experiment: 6 to 8 weeks; • Animal weight at the beginning of the experiment: 22 to 25 g; • Adaptation time: 3 to 5 days;
The mice were divided into groups according to their weight, 10 mice in each group. The mice were administrated once a day by gavage (or blank) according to the following Table 4.
Animals were given 3.5% DSS solution for free drinking water modeling (the day of modeling was recorded as day 1), and the modeling agent was replaced once every two days for 7 consecutive days, and then (day 8) 3.5% DSS was replaced with ordinary drinking water for another 1 day.
• Preparation of solvent 1: 0.66 mL DMSO, 1.32 mL Solutol and 11.22 mL Saline were mixed to prepare 13.2 mL of solvent 1; • Preparation of solvent 2: 0.3 mL DMSO, 0.6 mL Solutol and 5.1 mL Saline were mixed to prepare 6 mL of solvent 2; • Preparation of solution of compound of Example 3: 39.6 mg of compound of Example 3 was dissolved in 13.2 mL of solvent 1 to obtain the solution of compound 1 of Example 3, the solution 1 of compound of Example 3 was diluted with solvent 1 to prepare the solution of compound of Example 3 with concentrations of 2 mg/mL, 1 mg/mL, and 0.6 mg/mL; • Etrasimod solution: 6 mg of Etrasimod was dissolve in 6 mL of solvent 2 to obtain Etrasimod solution; • Ozanimod solution: 12 mg of […] was dissolved in 6 mL solvent 2 to obtain Ozanimod solution; • Note: Prepare once every two days, and store in refrigerator at 4° C.
Wherein, the purity of compound of Example 3 was 99.74%, Ozanimod and Etrasimod were prepared by the method described in Example 8, and the purities were 99.78% and 98.47% respectively.
The mouse stool was observed on its shape, bleeding condition every two days, and scored. Scoring criteria for stool condition: shape: normal (level 1), soft stool (level 2), and loose stool (level 3); traits: normal (level 1), faint redness (level 2), and bloody stool visible to the unaided eye (level 3).
After the last administration (8 consecutive days), the animals were dissected on the next day (day 9), the colon was separated, the whole colon was photographed, and the colon length was measured. Then the colon was cut longitudinally along the mesenteric side to remove the contents, which was weighed and observed on the integrity of the colonic mucosa. The colon was then fixed in 10% formalin.

Where [4] appears, read: 10 mg/kg oral gavage once a day for 7 days.
Setting [5] is: 360 mg/kg oral gavage once a day for 7 days.

T1 sequence (P21453 whole entry): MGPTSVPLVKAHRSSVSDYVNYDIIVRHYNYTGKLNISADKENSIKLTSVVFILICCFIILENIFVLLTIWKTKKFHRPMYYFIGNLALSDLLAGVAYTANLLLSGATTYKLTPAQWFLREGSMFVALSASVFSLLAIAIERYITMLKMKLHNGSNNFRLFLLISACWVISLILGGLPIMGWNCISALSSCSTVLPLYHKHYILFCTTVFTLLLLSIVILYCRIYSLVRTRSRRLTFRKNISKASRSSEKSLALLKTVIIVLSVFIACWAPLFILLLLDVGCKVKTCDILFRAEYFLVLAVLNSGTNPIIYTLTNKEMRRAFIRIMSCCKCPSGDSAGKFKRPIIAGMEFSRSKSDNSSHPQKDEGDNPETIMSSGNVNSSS

The term IC50 denotes the concentration that gives 50% inhibition. The compound `Cc1cc(OCc2ccc(C3CCCC3)c(C(F)(F)F)c2)cc2ccn(CCC(=O)O)c12` [Compound of Example 1, 3-(5-((4-cyclopentyl-3-(trifluoromethyl)benzyl)oxy)-7-methyl-1H-indole-1-yl)propionic acid] came in with an IC50 in data set [1] of 0.51 nM.

Take `CCc1cc(OCc2ccc(C3CCCC3)c(C(F)(F)F)c2)cc2ccn(CCC(=O)O)c12` [Compound of Example 2, 3-(5-((4-cyclopentyl-3-(trifluoromethyl)benzyl)oxy)-7-ethyl-1H-indole-1-yl)propionic acid]: the IC50 in data set [1] was found to be 3.27 nM.

In the case of `Cc1cc(OCc2ccc(C3CCCC3)c(C(F)(F)F)c2)cc2ccn(CCCC(=O)O)c12` [Compound of Example 4, 4-(5-((4-cyclopentyl-3-(trifluoromethyl)benzyl)oxy)-7-methyl-1H-indole-1-yl)butyric acid], the IC50 in data set [1] stood at 1.73 nM.

`CC(C)Oc1ccc(-c2nc(-c3cccc4c3CC[C@@H]4NCCO)no2)cc1C#N` [Ozanimod, reference compound] gave a Colon length in data set [2] (setting [4]) of 13.09 ± 0.5 cm. Further, the Colon weight turned out to be 3.30 ± 0.53 g in data set [2] (setting [4]) and 0.157 ± 0.01 g in data set [3] (20 mg/kg oral gavage once a day for 8 days, day 9). In data set [2] (setting [4]), the Colon weight/colon length was 0.25 g/cm. Moreover, the Ulcer area in data set [2] (setting [4]) came out at 498.04 ± 202.49 mm^2. In data set [2], the “General anatomical view of colon, from excellent to poor” value is given as “group using compound of Example 3>group using sulfasalazine>group using Etrasimod>group using Ozanimod”. Further, the Weight in data set [2] (Day 1, 10 mg/kg oral gavage once a day) is 247.1 ± 0.64 g; in data set [2] (Day 2, 10 mg/kg oral gavage once a day) it was 225.6 ± 0.65 g; in data set [2] (Day 3, 10 mg/kg oral gavage once a day) it was 225.1 ± 0.86 g; in data set [2] (Day 4, 10 mg/kg oral gavage once a day) it was 225.9 ± 1.39 g; in data set [2] (Day 5, 10 mg/kg oral gavage once a day), 231.3 ± 1.63 g; in data set [2] (Day 6, 10 mg/kg oral gavage once a day), 239 ± 1.72 g. For the same compound, the Weight amounted to 247.8 ± 1.74 g in data set [2] (Day 7, 10 mg/kg oral gavage once a day); 262.8 ± 1.22 g in data set [2] (Day 8, 10 mg/kg oral gavage once a day); 21.2 ± 0.19 g in data set [3] (Day 1); 21.7 ± 0.25 g in data set [3] (Day 2); 21.7 ± 0.26 g in data set [3] (Day 3); 21.9 ± 0.33 g in data set [3] (Day 4). Moreover, the Weight in data set [3] (Day 5) is listed as 21.5 ± 0.27 g; in data set [3] (Day 6), 20.6 ± 0.54^ g; in data set [3] (Day 7) it was 18.9 ± 0.54 g; in data set [3] (Day 8), 18.0 ± 0.5 g; in data set [3] (Day 9), 16.5 ± 0.49 g. Further, the “Drug efficacy intensity (colon weight)” value in data set [2] is recorded as “group using the compound of Example 3 (3 mg/kg)>group using Etrasimod (3 mg/kg)>group using sulfasalazine (360 mg/kg)>model group>group using Ozanimod (10 mg/kg)”. The “Colon length compared with model group” value in data set [3] (20 mg/kg) was “longer than that of the model group”. In addition, in data set [3] (20 mg/kg, day 9), the “Effect on blood stool and loose stool compared with model group” value is recorded as “had not significant improvement”. Besides, the Total stool scores came to 5.9 ± 0.11 in data set [3] (Day 7), 6.0 ± 0 in data set [3] (Day 8) and 5.1 ± 0 in data set [3] (Day 9). In data set [3] (by the end of the test period, 10 mice per group, doses as Table 4 (Ozanimod 20 mg/kg)), the “Number of dead animals” value turned out to be 3.

The compound `O=C(O)c1cc(/N=N/c2ccc(S(=O)(=O)Nc3ccccn3)cc2)ccc1O` [SASP, Sulfasalazine] yielded a Colon length in data set [2] (setting [5]) of 13.89 ± 0.45 cm. Besides, in data set [2] (setting [5]), the Colon weight came to 3.35 ± 0.74 g. The compound further came in with a Colon weight/colon length in data set [2] (setting [5]) of 0.24 g/cm. Further, in data set [2] (setting [5]), the Ulcer area is on record as 320.23 ± 167.1 mm^2. The “General anatomical view of colon, from excellent to poor” value in data set [2] was “group using compound of Example 3>group using sulfasalazine>group using Etrasimod>group using Ozanimod”. Also, the Weight is listed as 250.1 ± 0.48 g in data set [2] (Day 1, 360 mg/kg oral gavage once a day); 226.4 ± 0.34 g in data set [2] (Day 2, 360 mg/kg oral gavage once a day); 227.6 ± 1.13 g in data set [2] (Day 3, 360 mg/kg oral gavage once a day); 231.8 ± 1.59 g in data set [2] (Day 4, 360 mg/kg oral gavage once a day); 238.6 ± 1.83 g in data set [2] (Day 5, 360 mg/kg oral gavage once a day); 247.3 ± 1.91 g in data set [2] (Day 6, 360 mg/kg oral gavage once a day). The Weight came to 255 ± 2.01 g in data set [2] (Day 7, 360 mg/kg oral gavage once a day) and 267.9 ± 1.9 g in data set [2] (Day 8, 360 mg/kg oral gavage once a day). In data set [2] (SASP 360 mg/kg, Example 3 and Etrasimod 3 mg/kg, oral once a day), the “Weight course compared with model group” value is on record as “a certain tendency to inhibit the weight loss”. In data set [2], the “Drug efficacy intensity (colon weight)” value is listed as “group using the compound of Example 3 (3 mg/kg)>group using Etrasimod (3 mg/kg)>group using sulfasalazine (360 mg/kg)>model group>group using Ozanimod (10 mg/kg)”.
